# Where two headings read alike, the source gives them in different places.
# Experiments:
# [1] = tested on: Aβ42 secretion by U373 astrocytoma cells expressing human wtAPP695; test: Aβ secretion assay, Aβ42 (sandwich ELISA of cell supernatant); assay type: cell-based; conditions: for inhibition at 1.56 µM / inhibition at 3.12 µM / inhibition at 6.25 µM / inhibition at 12.5 µM / inhibition at 25 µM / inhibition at 50 µM: Homo sapiens, U373 MG, 17 h, read-out: Aβ42 Secretion, inhibition (−) or stimulation (+); for generation/secretion of Aβ42 (result in words): dose response
# Description: (§1) Cell culture and drug treatment: U373 astrocytoma cells expressing human wtAPP695 were used to test the compound of formula IA for Aβ lowering potential. Cells were cultured in 96 well plates in DMEM medium, additionally supplemented with 10% FCS and 1% glutamine, until they have grown to a confluent cell layer. The cells were then incubated for 17 hours in the presence of the compound of formula IA in DMEM medium. Afterwards, 100 μl of the supernatant had been removed and measured with the ELISA as described below to determine the Aβ42 peptide concentrations. The cells were washed, incubated again for 4 hours with the compound, before measuring the Aβ40 levels. AlamarBlue assays (Serotec, Oxford, UK) were conducted to determine cytotoxicity.
# (§2) Monoclonal 6E10 against Aβ1-17 (Signet Laboratories, Inc., Dedham, Mass., USA) was used to capture Aβ40; SGY 3160 against Aβ1-16 (Mayo Medical Ventures, Rochester, Minn., USA) to capture Aβ42. Both antibodies were diluted in PBS at a concentration of 8 μg/ml to coat a 96 well plate. Blocking was completed with 1% Block ACE (blocking reagent) (Dainippon Seiyaku, Asaka, Japan) in PBS for 2 hrs. The plates were then washed with PBST and the cell supernatants, diluted 1:1.5 in EC buffer (0.1 M NaH2PO4, 0.1 M Na2HPO4, 2 mM EDTA, 0.4 M NaCl, 0.2% BSA, 0.05% CHAPS, 0.4% Block ACE, 0.05% NaN3 pH 7.0) have been added into the wells, before the plates were stored at 4° C. over night. Detector antibodies (alkaline phosphatase-coupled ROβ40 and ROβ42 against Aβ40 and Aβ42, respectively), were loaded onto the wells at 0.1 μg/ml in ACE Block for 2 hrs. The reporter system used was the Tropix ELISA-Light chemiluminescent detection system (Applied Biosystems (Tropix), Bedford, Mass., USA).
# (§3) The compound of formula IA has been tested in an Aβ secretion assay. In this particular in vitro assay, the astrocytoma cell line U373 that stably over-expresses wild-type human amyloid precursor protein (APP) has been exposed to this compound. APP is proteolytically cleaved by 2 enzymes, BACE and γ secretase, to generate the Aβ peptides. Because of a flexible APP cleavage site of γ secretase, several Aβ isoforms are generated, majorly Aβ40 and Aβ42. The rate of Aβ generation/secretion into the medium in the presence or absence of the compound of formula IA in different concentrations has been measured by ELISA (Table 1). The % inhibition (−) or stimulation (+) has been determined in 2 independent experiments.
# [2] = tested on: Aβ40 secretion by U373 astrocytoma cells expressing human wtAPP695; test: Aβ secretion assay, Aβ40 (sandwich ELISA of cell supernatant); assay type: cell-based; conditions: for inhibition at 1.56 µM / inhibition at 3.12 µM / inhibition at 6.25 µM / inhibition at 12.5 µM / inhibition at 25 µM / inhibition at 50 µM: Homo sapiens, U373 MG, 4 h, read-out: Aβ40 Secretion, inhibition (−) or stimulation (+); for generation/secretion of Aβ40 (result in words): dose response
# Description: as §1, §2, §3
# [3] = tested on: cerebral Aβ40 levels in APPtg mice; test: Cerebral Aβ40 levels in APPtg mice after oral treatment; assay type: in vivo; conditions: for Level of Aβ40, reduction (−) and/or stimulation (+) of cerebral Aβ levels: per os
# Description: (§4) APPtg mice at 3 to 4 months of age were used. A compound of formula (IA) was prepared and administered in a suspension of 0.5% Tylose solution.
# (§5) Controls were treated with Tylose only. Each group consisted of 12 or 13 mice with equal numbers of each sex. In the short term study, the animals were treated for the time period of 2.5 days. Twice a day, a dose of 3 mg/kg was applied with interruption times of 11.5-12.5 hours. On the last day (day of sacrifice), one dose of 3 mg/kg was administered and the mice were sacrificed 5.5 hours later. […] In a second long term four weeks study, 3 mg/kg/day of compound of formula IA were administered, subdivided into two subdoses, with an interruption time of 10-12 hours during the day. Each version of the in vivo experiments has been performed once.
# (§6) The murine brains were rapidly removed from the skull and divided along the medial fissure. The cerebellum was removed before each half was quickly frozen down on a metal plate that had been cooled down on dry ice. Brains were placed in Eppendorf tubes, frozen in liquid nitrogen, and stored at −80° C. until needed for Aβ extractions or compound measurements.
# (§7) Brains were thawed on ice. Mouse hemibrains were extracted in a homogenisation buffer consisting of 20 mM Tris (pH 8.5), 0.2% Triton X-100, and complete proteinase inhibitor with EDTA (Roche Diagnostics GmbH, Mannheim, Germany). The brains were homogenized in a volume […] 5 times the weight of the brain (mg) using a 2 ml Douncer Homogenator (B. Braun, Melsungen, Germany). This was carried out 12 times with a Stempel L, followed by a Stempel S. The homogenates were then ultracentrifuged in Ultracentrifuge tubes (Beckman, CA, USA) at 200.000 g (UZ Sorvall RC 120 GX, KENDRO Laboratories Products GmbH, Hanau, Germany) at 4° C. for 1 hour. The post nuclear supernatants containing the soluble Aβ were collected and measured in a Sandwich ELISA (s.a.).
# (§8) Statistical analyses of data was done by one-sided t tests for differences between treatment and control group to determine the p values.
# [4] = tested on: cerebral Aβ42 levels in APPtg mice; test: Cerebral Aβ42 levels in APPtg mice after oral treatment; assay type: in vivo; conditions: for Level of Aβ42, reduction (−) and/or stimulation (+) of cerebral Aβ levels: per os
# Description: as §4, §5, §6, §7, §8
# [5] = Exp. 1, further 4 hours incubation
# [6] = Exp. 2, further 4 hours incubation
smiles,measurement,setting,value
CCOC[C@H]1C2CCC(C[C@@H]1c1ccc(Cl)c(Cl)c1)N2C (some centres unmarked) [Formula IA],inhibition at 1.56 µM,"[1]; Exp. 1, 17 hours incubation",3.5%
same,inhibition at 1.56 µM,"[1]; Exp. 2, 17 hours incubation",-4.5%
same,inhibition at 3.12 µM,"[1]; Exp. 1, 17 hours incubation",6.5%
same,inhibition at 3.12 µM,"[1]; Exp. 2, 17 hours incubation",-16.1%
same,inhibition at 6.25 µM,"[1]; Exp. 1, 17 hours incubation",4.1%
same,inhibition at 6.25 µM,"[1]; Exp. 2, 17 hours incubation",12.1%
same,inhibition at 12.5 µM,"[1]; Exp. 1, 17 hours incubation",17.8%
same,inhibition at 12.5 µM,"[1]; Exp. 2, 17 hours incubation",23.2%
same,inhibition at 25 µM,"[1]; Exp. 1, 17 hours incubation",24.5%
same,inhibition at 25 µM,"[1]; Exp. 2, 17 hours incubation",48.9%
same,inhibition at 50 µM,"[1]; Exp. 1, 17 hours incubation",26.6%
same,inhibition at 50 µM,"[1]; Exp. 2, 17 hours incubation",62.3%
same,generation/secretion of Aβ42 (result in words),[1]; FIG. 2,increasing inhibition of Aβ42 with an increasing concentration
same,generation/secretion of Aβ42 (result in words),"[1]; FIG. 2, listed as formula 1A",inhibited
same,inhibition at 1.56 µM,[2]; [5],3.2%
same,inhibition at 1.56 µM,[2]; [6],-16%
same,inhibition at 3.12 µM,[2]; [5],6.1%
same,inhibition at 3.12 µM,[2]; [6],-8%
same,inhibition at 6.25 µM,[2]; [5],20.9%
same,inhibition at 6.25 µM,[2]; [6],2.8%
same,inhibition at 12.5 µM,[2]; [5],33.9%
same,inhibition at 12.5 µM,[2]; [6],24.8%
same,inhibition at 25 µM,[2]; [5],50.1%
same,inhibition at 25 µM,[2]; [6],50.3%
same,inhibition at 50 µM,[2]; [5],81.3%
same,inhibition at 50 µM,[2]; [6],88.5%
same,generation/secretion of Aβ40 (result in words),[2]; FIG. 1,increasing inhibition of Aβ40 with an increasing concentration
same,generation/secretion of Aβ40 (result in words),"[2]; FIG. 1, listed as formula 1A",inhibited
same,"Level of Aβ40, reduction (−) and/or stimulation (+) of cerebral Aβ levels","[3]; APPtg mice, 2 weeks, 1 × 3.0 mg/kg/day, mean ± SEM",−18.6 ± 7.1 %
same,"Level of Aβ40, reduction (−) and/or stimulation (+) of cerebral Aβ levels","[3]; APPtg mice, 4 weeks, 2 × 1.5 mg/kg/day, mean ± two-sided confidence interval",−17.2 ± 8.7° %
same,"Level of Aβ40, reduction (−) and/or stimulation (+) of cerebral Aβ levels","[3]; APPtg mice, 2.5 days, 2 × 3.0 mg/kg day 1, 2, 1 × 3.0 mg/kg day 3, mean ± SEM vs Tylose control",−12.4 ± 1.9 %
same,reduction of Aβ40,"[3]; four weeks study, 3 mg/kg/day in two subdoses, APPtg mice",17.2%
same,Aβ40 levels in vivo (result in words),"[3]; in vivo test, FIG. 3 (short term experiment)",statistically significant reduction
same,reduction of the Aβ40 levels,"[3]; short term in vivo experiment (2.5 days, 3 mg/kg twice a day), APPtg mice, p=0.0003",12.4%
same,reduction of the cerebral Aβ40 levels,"[3]; two weeks treatment, 3 mg/kg once a day, APPtg mice, p=0.024",18.6%
same,reduction for Aβ42,"[4]; four weeks study, 3 mg/kg/day in two subdoses",27.4%
same,"Level of Aβ42, reduction (−) and/or stimulation (+) of cerebral Aβ levels","[4]; 2 weeks, 1 × 3.0 mg/kg/day, mean ± SEM",−16.3 ± 3.7 %
same,"Level of Aβ42, reduction (−) and/or stimulation (+) of cerebral Aβ levels","[4]; 4 weeks, 2 × 1.5 mg/kg/day, mean ± two-sided confidence interval",−27.4 ± 27.2° %
same,"Level of Aβ42, reduction (−) and/or stimulation (+) of cerebral Aβ levels","[4]; 2.5 days, 2 × 3.0 mg/kg day 1, 2, 1 × 3.0 mg/kg day 3, mean ± SEM vs Tylose control",+5.1 ± 3.0%
same,increase of Aβ42 levels,"[4]; short term in vivo experiment (2.5 days, 3 mg/kg twice a day), p=0.9136",5.1%
same,reduction of the cerebral Aβ42 levels,"[4]; two weeks treatment, 3 mg/kg once a day, p=0.0096",16.3%
